{"source": "paper PMC6332424", "about": "“Synthesis and Evaluation of New Pyrazoline Derivatives as Potential Anticancer Agents” (Molecules, 2015)", "key": {"[1]": {"test_system": "AsPC-1, U87 and U251 cell lines", "experiment": "MTT assay, overall activity on the three cell lines (in words)", "type": "cell-based, human", "settings": "10–500 µM, all three cell lines", "method": "(§1) U251 and U87 human glioblastoma cells were incubated in Dulbecco’s-modified Eagle’s medium (DMEM) (Wako Pure Chemical Industries, Osaka, Japan) supplemented with 10% fetal bovine serum (FBS) (Equitech-Bio, Kerrville, TX, USA). AsPC-1 human pancreas adenocarcinoma and Jurkat human leukemic T-cells were incubated RPMI 1640 (Wako Pure Chemical Industries), supplemented with 10% FBS. Peripheral blood mononuclear cells (PBMC) (Precision Bioservices, Frederick, MD, USA) were incubated RPMI 1640 and supplemented with 10% human serum AB (HS) (Gemini, Woodland, CA, USA). […] Growing cells were plated at 1 × 10^5 cells/mL into 24-well microtiter tissue culture plates (Iwaki brand Asahi Glass Co., Chiba, Japan) and incubated for 24 h before the addition of the drugs (the optimal cell number for cytotoxicity assays was determined in preliminary experiments). […] The level of cellular reduction of 3-(4,5-dimethylthiazol-2-yl)-2,5-diphenyltetrazolium bromide (MTT) (Dojindo Molecular Technologies, Kumamoto, Japan) was quantified as previously described in the literature with small modifications. […] After the solubilized crystals were diluted (1:10) with DMSO, 100 µL was transferred to wells of 96-well microtiter plates (Iwaki brand Asahi Glass Co.) and the absorbance at 550 nm was measured using a microplate spectrophotometer Infinitive M1000 (Tecan, Groding, Austria). […]"}, "U251 cells": {"test_system": "U251 cells", "experiment": "Detection of apoptotic and necrotic cells (annexin V/ethidium homodimer III staining)", "type": "cell-based, human", "excerpt": "U251 cells were stained and observed by fluorescence microscope (Figure 4). If the cells are colored green with annexin V, and not stained red with ethidium homodimer III, the cells are judged to be apoptotic. […] The apoptotic and necrotic effects of compound 11 were compared with cisplatin. […] Then, apoptotic/necrotic/healthy cells detection kit protocol was applied according to the manufacturer’s instruction manual (PromoKine, Heidelberg, Germany). After the cells were washed twice with 1 × binding buffer, a staining solution containing 50 µL of 1 × binding buffer, 2 µL of FTIC-Annexin V solution, 2 µL of ethidium homodimer III solution and 2 µL of Hoechst 33342 solution was added and the cells were incubated for 15 min at RT, protected from light. Cells were washed with 1 × binding buffer and analyzed by all-in-one fluorescence microscope Biorevo Fluorescence BZ-9000 (Keyence, Osaka, Japan)."}, "[2]": {"test_system": "peripheral blood mononuclear cells (PBMC)", "experiment": "MTT cell viability, PBMC (tumor selectivity)", "type": "cell-based, human", "settings": "Figure 3b, read-out: IC50 against PBMC", "method": "as §1"}, "supercoiled pUC19 DNA": {"test_system": "supercoiled pUC19 DNA", "experiment": "DNA cleavage assay (agarose gel electrophoresis)", "type": "biochemical", "settings": "37 °C, 1.5 h", "method": "The DNA cleavage activities of compound 11 and cisplatin at the IC50 concentrations in water and Tris/boric acid buffer in the presence and absent of the iron complex, H2O2 and ascorbic acid as an activator were studied using supercoiled pUC19 DNA (Figure 5). The reaction mixture was incubated at 37 °C for 1.5 h and then agarose gel electrophoresis was performed at 100 V for 40 min. DNA was visualized by photographing the fluorescence of intercalated ethidium bromide under a UV illuminator. […] Thus, it is considered that DNA-cleavage was caused by oxygen activation.\nThe DNA cleavage activities of the compounds were studied using supercoiled pUC19 DNA and analyzed by agarose (Takara, Kyoto, Japan) gel electrophoresis Mupid-2x (Mupid, Tokyo, Japan). pUC19 DNA (2 µg) was treated with compounds in water and Tris/boric acid (Nacalai Tesque, Kyoto, Japan) buffer (10 mM, pH 8.5) in the presence and absence of iron (II) sulfate heptahydrate (FeSO4·7H2O; 30 µM) (Wako Pure Chemical Industries), hydrogen peroxide (H2O2; 30 µM) (Tokyo Chemical Industry Co., Tokyo, Japan) and ascorbic acid (30 µM) (Tokyo Chemical Industry Co.) as an activator. […] DNA was visualized by photographing the fluorescence of intercalated ethidium bromide under a UV illuminator (Nippon Genetics Co., Tokyo, Japan)."}, "[3]": {"test_system": "Jurkat human leukemic T-cells", "experiment": "MTT cell viability, Jurkat cells (tumor selectivity)", "type": "cell-based", "method": "as §1"}, "[4]": {"test_system": "U251 human glioblastoma cell line", "experiment": "MTT assay for cytotoxicity, U251 cells", "type": "cell-based", "settings": "24 h incubation", "method": "(§2) U251 and U87 human glioblastoma cells were incubated in Dulbecco’s-modified Eagle’s medium (DMEM) (Wako Pure Chemical Industries, Osaka, Japan) supplemented with 10% fetal bovine serum (FBS) (Equitech-Bio, Kerrville, TX, USA). AsPC-1 human pancreas adenocarcinoma and Jurkat human leukemic T-cells were incubated RPMI 1640 (Wako Pure Chemical Industries), supplemented with 10% FBS. Peripheral blood mononuclear cells (PBMC) (Precision Bioservices, Frederick, MD, USA) were incubated RPMI 1640 and supplemented with 10% human serum AB (HS) (Gemini, Woodland, CA, USA). All media were supplemented with 89 µg/mL streptomycin (Meiji Seika Pharma, Tokyo, Japan) and cells were incubated at 37 °C in a humidified atmosphere of 95% air and 5% CO2. Growing cells were plated at 1 × 10^5 cells/mL into 24-well microtiter tissue culture plates (Iwaki brand Asahi Glass Co., Chiba, Japan) and incubated for 24 h before the addition of the drugs (the optimal cell number for cytotoxicity assays was determined in preliminary experiments). Stock solutions (1 mM, 5 mM, 10 mM, 20 mM, and 50 mM) of compounds and cisplatin (Sigma-Aldrich, St. Louis, MO, USA) were prepared in dimethyl sulfoxide (DMSO; Wako Pure Chemical Industries) and in dimethylformamide (DMF; Wako Pure Chemical Industries) respectively, then were added to fresh culture medium. The concentration of DMSO and DMF in the final culture medium was 1%. The level of cellular reduction of 3-(4,5-dimethylthiazol-2-yl)-2,5-diphenyltetrazolium bromide (MTT) (Dojindo Molecular Technologies, Kumamoto, Japan) was quantified as previously described in the literature with small modifications. The tested compounds were incubated with cells to give a final concentration in the range 50–500 µM for 24 h. At the end of this period, MTT was added to cells in culture to give a final concentration of 0.275 mg/mL and incubated further for 4 h at 37 °C. The medium was removed and the formazan crystals were solubilized by addition of 100 µL DMSO to each well. After the solubilized crystals were diluted (1:10) with DMSO, 100 µL was transferred to wells of 96-well microtiter plates (Iwaki brand Asahi Glass Co.) and the absorbance at 550 nm was measured using a microplate spectrophotometer Infinitive M1000 (Tecan, Groding, Austria). Every concentration was repeated in three wells and IC50 values were defined as the drug concentrations which reduced absorbance to 50 % of control values."}, "[5]": {"test_system": "U87 human glioblastoma cell line", "experiment": "MTT assay for cytotoxicity, U87 cells", "type": "cell-based", "settings": "for IC50: MTT, 24 h incubation", "method": "as §2"}, "[6]": {"test_system": "AsPC-1 human pancreatic adenocarcinoma cell line", "experiment": "MTT assay for cytotoxicity, AsPC-1 cells", "type": "cell-based", "settings": "24 h incubation, read-out: IC50 AsPC1 Cell Line", "method": "as §2"}}, "note": "“Also recorded” adds a separate entry of the source.", "data": [{"molecule": "1-[(5-(4-Methylphenyl)-1,3,4-oxadiazol-2-yl)thioacetyl]-3-(2-thienyl)-5-(4-chlorophenyl)-2-pyrazoline [Compound 11]", "values": [{"measurement": "cytotoxic activity (in words)", "setting": "[1]", "value": "good activity"}, {"measurement": "apoptotic/necrotic effect", "setting": "U251 cells; IC50 (11.9 µM, high concentration), 3 h", "value": "mainly induced necrosis"}, {"measurement": "apoptotic/necrotic effect", "setting": "U251 cells; IC50 concentration, 24 h", "value": "late stage apoptotic or necrotic effect"}, {"measurement": "apoptotic/necrotic effect", "setting": "U251 cells; low concentration (1.5 µM), 3 h", "value": "exhibited apoptotic phenotype; also recorded: induced apoptosis; also recorded: showed apoptotic activity"}, {"measurement": "IC50", "setting": "[2]", "value": "~1000", "unit": "µM"}, {"measurement": "DNA-cleaving efficiency compared with cisplatin", "setting": "supercoiled pUC19 DNA; IC50 concentrations, iron (II) complex system", "value": "more significant than cisplatin; also recorded: much greater than cisplatin"}, {"measurement": "DNA cleavage efficiency with vs without FeSO4, H2O2 and ascorbic acid", "setting": "supercoiled pUC19 DNA; pUC19 DNA, 30 µM each activator", "value": "clearly enhanced"}, {"measurement": "IC50", "setting": "[3]; MTT, Figure 3b, read-out: IC50 against Jurkat human leukemic T-cells", "value": 90, "unit": "µM"}, {"measurement": "tumor selectivity in blood cells (PBMC vs Jurkat)", "setting": "[3]; ratio of IC50 PBMC to IC50 Jurkat", "value": "more than 10 times"}]}, {"molecule": "1-[(1-Phenyl-1H-tetrazol-5-yl)thioacetyl]-3-(2-thienyl)-5-(4-chlorophenyl)-2-pyrazoline [Compound 3]", "values": [{"measurement": "IC50", "setting": "[4]", "value": "> 500", "unit": "µM"}, {"measurement": "IC50", "setting": "[5]", "value": "> 500", "unit": "µM"}, {"measurement": "IC50", "setting": "[6]", "value": "> 500", "unit": "µM"}]}, {"molecule": "1-[(1-(4-Hydroxyphenyl)-1H-tetrazol-5-yl)thioacetyl]-3-(2-thienyl)-5-(4-chlorophenyl)-2-pyrazoline [Compound 4]", "values": [{"measurement": "IC50", "setting": "[4]", "value": "> 500", "unit": "µM"}, {"measurement": "IC50", "setting": "[5]", "value": "> 500", "unit": "µM"}, {"measurement": "IC50", "setting": "[6]", "value": "65 ± 5.4", "unit": "µM"}]}, {"molecule": "1-[(1-Methyl-1H-tetrazol-5-yl)thioacetyl]-3-(2-thienyl)-5-(4-chlorophenyl)-2-pyrazoline [Compound 2]", "values": [{"measurement": "IC50", "setting": "[4]", "value": "> 500", "unit": "µM"}, {"measurement": "IC50", "setting": "[5]", "value": "> 500", "unit": "µM"}, {"measurement": "IC50", "setting": "[6]", "value": "> 500", "unit": "µM"}]}, {"molecule": "1-[(5-(Pyridin-3-yl)-1,3,4-oxadiazol-2-yl)thioacetyl]-3-(2-thienyl)-5-(4-chlorophenyl)-2-pyrazoline [Compound 9]", "values": [{"measurement": "IC50", "setting": "[4]", "value": "> 500", "unit": "µM"}, {"measurement": "IC50", "setting": "[5]", "value": "> 500", "unit": "µM"}, {"measurement": "IC50", "setting": "[6]", "value": "108 ± 30.1", "unit": "µM"}]}, {"molecule": "1-[(5-(4-Methoxyphenyl)-1,3,4-oxadiazol-2-yl)thioacetyl]-3-(2-thienyl)-5-(4-chlorophenyl)-2-pyrazoline [Compound 12]", "values": [{"measurement": "cytotoxicity on U87 cell line (in words)", "setting": "[5]", "value": "no significant cytotoxicity"}]}, {"molecule": "1-[(5-Methyl-1,3,4-thiadiazol-2-yl)thioacetyl]-3-(2-thienyl)-5-(4-chlorophenyl)-2-pyrazoline [Compound 6]", "values": [{"measurement": "IC50", "setting": "[4]", "value": "> 500", "unit": "µM"}, {"measurement": "IC50", "setting": "[5]", "value": "> 500", "unit": "µM"}, {"measurement": "IC50", "setting": "[6]", "value": "199 ± 32.8", "unit": "µM"}]}, {"molecule": "N.N.[Cl][Pt][Cl]", "note": "[Cisplatin, reference compound]", "values": [{"measurement": "apoptotic/necrotic effect", "setting": "U251 cells; IC50 concentration, 24 h", "value": "only apoptotic effects"}, {"measurement": "IC50", "setting": "[4]", "value": "4.9 ± 1", "unit": "µM"}, {"measurement": "IC50", "setting": "[5]", "value": "14.8 ± 1.4", "unit": "µM"}, {"measurement": "IC50", "setting": "[6]", "value": "22.5 ± 2", "unit": "µM"}]}, {"molecule": "1-[(5-Phenyl-1,3,4-oxadiazol-2-yl)thioacetyl]-3-(2-thienyl)-5-(4-chlorophenyl)-2-pyrazoline [Compound 8]", "values": [{"measurement": "IC50", "setting": "[4]", "value": "393 ± 60.4", "unit": "µM"}, {"measurement": "IC50", "setting": "[5]", "value": "> 500", "unit": "µM"}, {"measurement": "IC50", "setting": "[6]", "value": "139 ± 26.8", "unit": "µM"}]}, {"molecule": "1-[(5-(4-Chlorophenyl)-1,3,4-oxadiazol-2-yl)thioacetyl]-3-(2-thienyl)-5-(4-chlorophenyl)-2-pyrazoline [Compound 10]", "values": [{"measurement": "IC50", "setting": "[5]", "value": "251 ± 30.4", "unit": "µM"}]}, {"molecule": "1-[(Pyrimidin-2-yl)thioacetyl]-3-(2-thienyl)-5-(4-chlorophenyl)-2-pyrazoline [Compound 7]", "values": [{"measurement": "IC50", "setting": "[4]", "value": "> 500", "unit": "µM"}, {"measurement": "IC50", "setting": "[5]", "value": "> 500", "unit": "µM"}, {"measurement": "IC50", "setting": "[6]", "value": "236 ± 36.4", "unit": "µM"}]}, {"molecule": "1-[(1-(2-(Dimethylamino)ethyl)-1H-tetrazol-5-yl)thioacetyl]-3-(2-thienyl)-5-(4-chlorophenyl)-2-pyrazoline [Compound 5]", "values": [{"measurement": "IC50", "setting": "[4]", "value": "> 500", "unit": "µM"}, {"measurement": "IC50", "setting": "[5]", "value": "> 500", "unit": "µM"}, {"measurement": "IC50", "setting": "[6]", "value": "216 ± 29.7", "unit": "µM"}]}]}
